Laboratory results published in ChEMBL document CHEMBL4507296 (2021).

Key:
[1] = target: Alpha-1B adrenergic receptor (Homo sapiens) (UniProt P35368); conditions: Compound concentration 10.0 uM
[2] = target: Beta-1 adrenergic receptor (Homo sapiens) (UniProt P08588); conditions: Compound concentration 10.0 uM
[3] = target: Calcium/calmodulin-dependent protein kinase type 1 (Homo sapiens) (UniProt Q14012); conditions: Compound concentration 1000.0 nM
[4] = target: 5-hydroxytryptamine receptor 1D (Homo sapiens) (UniProt P28221); conditions: Compound concentration 10.0 uM
[5] = target: Fibroblast growth factor receptor 3 (Homo sapiens) (UniProt P22607); conditions: Compound concentration 1000.0 nM
[6] = target: Bone morphogenetic protein receptor type-1B (Homo sapiens) (UniProt O00238); conditions: Compound concentration 1000.0 nM
[7] = system: Receptor-type tyrosine-protein kinase FLT3 (Homo sapiens), P36888 [D835Y]; conditions: Compound concentration 1000.0 nM
[8] = target: Ribosomal protein S6 kinase alpha-1 (Homo sapiens) (UniProt Q15418); conditions: Compound concentration 1000.0 nM
[9] = target: Serine/threonine-protein kinase ULK3 (Homo sapiens) (UniProt Q6PHR2); conditions: Compound concentration 1000.0 nM
[10] = target: Histamine H1 receptor (Homo sapiens) (UniProt P35367); conditions: Compound concentration 10.0 uM
[11] = target: Cyclin-dependent kinase 9 (Homo sapiens) (UniProt P50750); conditions: Compound concentration 1000.0 nM
[12] = target: Serine/threonine-protein kinase PAK 1 (Homo sapiens) (UniProt Q13153); conditions: Compound concentration 1000.0 nM
[13] = target: Ephrin type-A receptor 8 (Homo sapiens) (UniProt P29322); conditions: Compound concentration 1000.0 nM
[14] = target: MTNR1B (Cricetulus griseus) (UniProt G3H6N9); assay: Melatonin 2 (hamster) CEREP ligand profiling; conditions: Compound concentration 10.0 uM
[15] = target: Interleukin-1 receptor-associated kinase 1 (Homo sapiens) (UniProt P51617); conditions: Compound concentration 1000.0 nM
[16] = target: D(3) dopamine receptor (Homo sapiens) (UniProt P35462); conditions: Compound concentration 10.0 uM
[17] = target: Serine/threonine-protein kinase LATS2 (Homo sapiens) (UniProt Q9NRM7); conditions: Compound concentration 1000.0 nM
[18] = target: Serine/threonine-protein kinase 25 (Homo sapiens) (UniProt O00506); conditions: Compound concentration 1000.0 nM
[19] = target: 5-hydroxytryptamine receptor 2B (Homo sapiens) (UniProt P41595); assay: Serotonin 5-HT2b (human) CEREP ligand profiling; conditions: Compound concentration 10.0 uM
[20] = target: SNF-related serine/threonine-protein kinase (Homo sapiens) (UniProt Q9NRH2); conditions: Compound concentration 1000.0 nM
[21] = target: Mitogen-activated protein kinase 3 (Homo sapiens) (UniProt P27361); conditions: Compound concentration 1000.0 nM
[22] = target: Cyclin-dependent kinase 18 (Homo sapiens) (UniProt Q07002); conditions: Compound concentration 1000.0 nM
[23] = system: Leucine-rich repeat serine/threonine-protein kinase 2 (Homo sapiens), Q5S007 [G2019S]; conditions: Compound concentration 1000.0 nM
[24] = target: Serine/threonine-protein kinase 38-like (Homo sapiens) (UniProt Q9Y2H1); conditions: Compound concentration 1000.0 nM
[25] = target: Mitogen-activated protein kinase kinase kinase 20 (Homo sapiens) (UniProt Q9NYL2); conditions: Compound concentration 1000.0 nM
[26] = target: Activin receptor type-1 (Homo sapiens) (UniProt Q04771); conditions: Compound concentration 1000.0 nM
[27] = system: Receptor-type tyrosine-protein kinase FLT3 (Homo sapiens), P36888 [UNDEFINED MUTATION]; conditions: Compound concentration 1000.0 nM
[28] = target: Myosin-IIIa (Homo sapiens) (UniProt Q8NEV4); conditions: Compound concentration 1000.0 nM
[29] = target: Mitogen-activated protein kinase kinase kinase 15 (Homo sapiens) (UniProt Q6ZN16); conditions: Compound concentration 1000.0 nM
[30] = target: Myosin light chain kinase, smooth muscle (Homo sapiens) (UniProt Q15746); conditions: Compound concentration 1000.0 nM
[31] = target: Delta-type opioid receptor (Homo sapiens) (UniProt P41143); conditions: Compound concentration 10.0 uM
[32] = target: High affinity choline transporter 1 (Homo sapiens) (UniProt Q9GZV3); assay: Choline transporter 1 (human) CEREP ligand profiling; conditions: Compound concentration 10.0 uM
[33] = target: Mitogen-activated protein kinase 12 (Homo sapiens) (UniProt P53778); conditions: Compound concentration 1000.0 nM
[34] = target: Mitogen-activated protein kinase 6 (Homo sapiens) (UniProt Q16659); conditions: Compound concentration 1000.0 nM
[35] = target: Protein kinase C iota type (Homo sapiens) (UniProt P41743); conditions: Compound concentration 1000.0 nM
[36] = target: Dual specificity mitogen-activated protein kinase kinase 3 (Homo sapiens) (UniProt P46734); conditions: Compound concentration 1000.0 nM
[37] = target: NUAK family SNF1-like kinase 2 (Homo sapiens) (UniProt Q9H093); conditions: Compound concentration 1000.0 nM
[38] = target: Rhodopsin kinase GRK1 (Homo sapiens) (UniProt Q15835); conditions: Compound concentration 1000.0 nM
[39] = target: MAP kinase-interacting serine/threonine-protein kinase 1 (Homo sapiens) (UniProt Q9BUB5); conditions: Compound concentration 1000.0 nM
[40] = target: 1-phosphatidylinositol 3-phosphate 5-kinase (Homo sapiens) (UniProt Q9Y2I7); conditions: Compound concentration 1000.0 nM
[41] = target: Ribosomal protein S6 kinase alpha-5 (Homo sapiens) (UniProt O75582); conditions: Compound concentration 1000.0 nM
[42] = target: Casein kinase I isoform alpha-like (Homo sapiens) (UniProt Q8N752); conditions: Compound concentration 1000.0 nM
[43] = target: Serine/threonine-protein kinase VRK2 (Homo sapiens) (UniProt Q86Y07); conditions: Compound concentration 1000.0 nM
[44] = system: Mast/stem cell growth factor receptor Kit (Homo sapiens), P10721 [V559D]; conditions: Compound concentration 1000.0 nM
[45] = target: Casein kinase I isoform alpha (Homo sapiens) (UniProt P48729); conditions: Compound concentration 1000.0 nM
[46] = system: Tyrosine-protein kinase ABL1 (Homo sapiens), P00519 [Q252H]; conditions: Compound concentration 1000.0 nM

Chain of Calcium/calmodulin-dependent protein kinase type 1 (Homo sapiens) (Q14012 whole entry, looked up): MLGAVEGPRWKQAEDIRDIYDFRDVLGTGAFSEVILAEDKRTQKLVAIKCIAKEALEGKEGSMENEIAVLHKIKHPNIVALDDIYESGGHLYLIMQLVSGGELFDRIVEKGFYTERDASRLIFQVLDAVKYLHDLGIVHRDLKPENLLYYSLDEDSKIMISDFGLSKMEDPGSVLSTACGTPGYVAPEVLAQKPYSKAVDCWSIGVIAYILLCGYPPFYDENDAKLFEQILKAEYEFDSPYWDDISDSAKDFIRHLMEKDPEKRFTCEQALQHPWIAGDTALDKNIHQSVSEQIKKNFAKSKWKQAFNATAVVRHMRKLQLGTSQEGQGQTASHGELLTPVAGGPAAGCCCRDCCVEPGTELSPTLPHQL
Chain of Bone morphogenetic protein receptor type-1B (Homo sapiens) (O00238 whole entry): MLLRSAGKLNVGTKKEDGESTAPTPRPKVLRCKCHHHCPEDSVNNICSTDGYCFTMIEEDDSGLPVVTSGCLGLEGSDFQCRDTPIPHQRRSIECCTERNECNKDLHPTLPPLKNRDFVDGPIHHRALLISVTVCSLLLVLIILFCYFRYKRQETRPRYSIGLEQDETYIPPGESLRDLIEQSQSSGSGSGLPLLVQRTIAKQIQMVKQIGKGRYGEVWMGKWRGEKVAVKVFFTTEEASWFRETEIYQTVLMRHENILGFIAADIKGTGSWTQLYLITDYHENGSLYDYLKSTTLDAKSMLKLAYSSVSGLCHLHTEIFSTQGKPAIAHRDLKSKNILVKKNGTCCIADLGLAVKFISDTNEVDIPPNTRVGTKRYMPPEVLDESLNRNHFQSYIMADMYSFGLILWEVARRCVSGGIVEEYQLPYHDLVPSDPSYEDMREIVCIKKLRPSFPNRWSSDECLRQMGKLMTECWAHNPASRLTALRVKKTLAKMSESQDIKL
Chain of Histamine H1 receptor (Homo sapiens) (P35367 whole entry): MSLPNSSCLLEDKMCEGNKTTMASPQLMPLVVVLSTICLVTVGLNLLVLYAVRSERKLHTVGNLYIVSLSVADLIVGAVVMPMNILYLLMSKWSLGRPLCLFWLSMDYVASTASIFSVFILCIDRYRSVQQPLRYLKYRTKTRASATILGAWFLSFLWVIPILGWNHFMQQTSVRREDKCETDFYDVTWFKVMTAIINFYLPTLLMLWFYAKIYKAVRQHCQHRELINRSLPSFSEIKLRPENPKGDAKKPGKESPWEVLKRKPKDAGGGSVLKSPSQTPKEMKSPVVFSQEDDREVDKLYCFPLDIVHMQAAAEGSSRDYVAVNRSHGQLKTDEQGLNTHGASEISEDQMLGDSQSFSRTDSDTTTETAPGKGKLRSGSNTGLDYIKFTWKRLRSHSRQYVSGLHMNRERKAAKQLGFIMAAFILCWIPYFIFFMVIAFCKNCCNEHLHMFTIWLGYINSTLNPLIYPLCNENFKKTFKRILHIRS
Chain of Cyclin-dependent kinase 18 (Homo sapiens) (Q07002 whole entry): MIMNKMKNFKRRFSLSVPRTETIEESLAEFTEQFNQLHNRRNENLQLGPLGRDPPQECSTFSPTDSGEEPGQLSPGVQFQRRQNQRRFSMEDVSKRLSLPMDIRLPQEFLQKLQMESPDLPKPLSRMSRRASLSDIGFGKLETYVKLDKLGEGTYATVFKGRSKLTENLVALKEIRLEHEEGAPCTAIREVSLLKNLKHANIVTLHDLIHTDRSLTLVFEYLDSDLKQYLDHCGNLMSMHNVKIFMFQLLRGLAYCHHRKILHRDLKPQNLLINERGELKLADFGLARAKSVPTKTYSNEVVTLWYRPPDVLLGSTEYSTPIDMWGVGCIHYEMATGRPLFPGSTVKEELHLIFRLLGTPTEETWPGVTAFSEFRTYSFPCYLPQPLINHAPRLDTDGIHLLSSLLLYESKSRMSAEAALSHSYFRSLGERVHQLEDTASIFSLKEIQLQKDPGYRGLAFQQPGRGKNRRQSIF
Chain of Protein kinase C iota type (Homo sapiens) (P41743 whole entry): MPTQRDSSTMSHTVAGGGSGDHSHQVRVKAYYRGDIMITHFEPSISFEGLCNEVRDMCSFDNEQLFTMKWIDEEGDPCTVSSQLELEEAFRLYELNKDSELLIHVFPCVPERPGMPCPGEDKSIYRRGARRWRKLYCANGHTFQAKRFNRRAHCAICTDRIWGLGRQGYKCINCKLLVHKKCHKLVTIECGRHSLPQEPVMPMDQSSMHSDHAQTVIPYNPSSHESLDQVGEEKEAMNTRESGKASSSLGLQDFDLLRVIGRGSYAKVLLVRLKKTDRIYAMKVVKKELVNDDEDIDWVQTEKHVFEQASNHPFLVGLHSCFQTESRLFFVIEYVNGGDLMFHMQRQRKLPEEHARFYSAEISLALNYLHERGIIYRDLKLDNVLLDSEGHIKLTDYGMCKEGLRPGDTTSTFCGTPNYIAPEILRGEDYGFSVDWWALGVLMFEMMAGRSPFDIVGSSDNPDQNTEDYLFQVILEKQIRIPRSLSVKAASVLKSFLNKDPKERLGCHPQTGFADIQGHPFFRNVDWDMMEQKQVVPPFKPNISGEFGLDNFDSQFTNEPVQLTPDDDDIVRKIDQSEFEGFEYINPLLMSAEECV
Chain of Ribosomal protein S6 kinase alpha-1 (Homo sapiens) (Q15418 whole entry): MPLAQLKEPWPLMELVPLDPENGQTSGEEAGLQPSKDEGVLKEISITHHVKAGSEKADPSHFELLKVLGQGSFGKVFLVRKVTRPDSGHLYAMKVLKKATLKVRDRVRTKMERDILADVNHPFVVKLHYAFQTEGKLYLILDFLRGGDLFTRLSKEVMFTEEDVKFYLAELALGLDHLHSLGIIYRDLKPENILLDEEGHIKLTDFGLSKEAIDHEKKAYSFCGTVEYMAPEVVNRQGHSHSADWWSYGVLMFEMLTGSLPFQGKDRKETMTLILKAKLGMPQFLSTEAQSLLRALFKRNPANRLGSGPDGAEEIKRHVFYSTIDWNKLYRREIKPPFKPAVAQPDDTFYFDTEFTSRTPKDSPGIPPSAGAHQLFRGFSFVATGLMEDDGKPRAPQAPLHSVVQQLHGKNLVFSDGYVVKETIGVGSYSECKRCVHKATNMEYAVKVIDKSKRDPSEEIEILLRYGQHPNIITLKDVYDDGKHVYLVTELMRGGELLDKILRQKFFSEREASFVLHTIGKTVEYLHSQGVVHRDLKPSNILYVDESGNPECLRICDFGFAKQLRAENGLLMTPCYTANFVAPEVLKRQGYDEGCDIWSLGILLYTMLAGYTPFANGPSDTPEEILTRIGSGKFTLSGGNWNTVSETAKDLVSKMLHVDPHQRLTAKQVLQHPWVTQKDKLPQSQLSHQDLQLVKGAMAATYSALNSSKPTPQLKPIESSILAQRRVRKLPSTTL
Chain of Mitogen-activated protein kinase kinase kinase 20 (Homo sapiens) (Q9NYL2 2-800 limits assumed): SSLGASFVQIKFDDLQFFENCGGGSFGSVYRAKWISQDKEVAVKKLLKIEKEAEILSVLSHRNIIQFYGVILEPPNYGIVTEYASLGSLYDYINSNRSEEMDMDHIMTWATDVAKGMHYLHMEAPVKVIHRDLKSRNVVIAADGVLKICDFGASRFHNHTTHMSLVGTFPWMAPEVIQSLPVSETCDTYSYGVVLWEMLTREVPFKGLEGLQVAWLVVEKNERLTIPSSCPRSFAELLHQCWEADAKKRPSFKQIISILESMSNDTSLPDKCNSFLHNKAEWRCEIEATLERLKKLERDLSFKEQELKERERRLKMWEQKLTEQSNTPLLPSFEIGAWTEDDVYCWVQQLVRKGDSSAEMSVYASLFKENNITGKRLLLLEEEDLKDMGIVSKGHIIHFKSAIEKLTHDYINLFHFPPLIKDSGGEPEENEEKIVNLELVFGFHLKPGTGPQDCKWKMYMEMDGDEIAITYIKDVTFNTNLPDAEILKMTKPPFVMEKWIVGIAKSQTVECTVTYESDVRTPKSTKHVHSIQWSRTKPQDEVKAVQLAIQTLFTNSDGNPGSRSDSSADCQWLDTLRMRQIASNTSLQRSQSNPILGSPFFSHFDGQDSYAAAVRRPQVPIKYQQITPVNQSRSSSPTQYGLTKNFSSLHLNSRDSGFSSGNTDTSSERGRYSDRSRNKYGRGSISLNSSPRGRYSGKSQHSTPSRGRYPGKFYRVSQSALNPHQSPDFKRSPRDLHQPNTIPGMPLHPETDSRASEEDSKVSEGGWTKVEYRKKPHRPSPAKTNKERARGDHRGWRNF
Chain of Casein kinase I isoform alpha-like (Homo sapiens) (Q8N752 whole entry, canonical isoform): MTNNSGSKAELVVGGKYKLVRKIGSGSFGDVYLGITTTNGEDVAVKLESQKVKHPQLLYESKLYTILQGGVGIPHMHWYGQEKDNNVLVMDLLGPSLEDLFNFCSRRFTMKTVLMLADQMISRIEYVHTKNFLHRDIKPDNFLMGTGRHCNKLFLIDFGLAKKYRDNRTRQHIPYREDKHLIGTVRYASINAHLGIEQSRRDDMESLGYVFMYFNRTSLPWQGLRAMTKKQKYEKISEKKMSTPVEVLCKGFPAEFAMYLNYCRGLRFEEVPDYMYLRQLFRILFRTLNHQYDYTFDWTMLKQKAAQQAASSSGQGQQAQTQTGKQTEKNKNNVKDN
Chain of NUAK family SNF1-like kinase 2 (Homo sapiens) (Q9H093 whole entry): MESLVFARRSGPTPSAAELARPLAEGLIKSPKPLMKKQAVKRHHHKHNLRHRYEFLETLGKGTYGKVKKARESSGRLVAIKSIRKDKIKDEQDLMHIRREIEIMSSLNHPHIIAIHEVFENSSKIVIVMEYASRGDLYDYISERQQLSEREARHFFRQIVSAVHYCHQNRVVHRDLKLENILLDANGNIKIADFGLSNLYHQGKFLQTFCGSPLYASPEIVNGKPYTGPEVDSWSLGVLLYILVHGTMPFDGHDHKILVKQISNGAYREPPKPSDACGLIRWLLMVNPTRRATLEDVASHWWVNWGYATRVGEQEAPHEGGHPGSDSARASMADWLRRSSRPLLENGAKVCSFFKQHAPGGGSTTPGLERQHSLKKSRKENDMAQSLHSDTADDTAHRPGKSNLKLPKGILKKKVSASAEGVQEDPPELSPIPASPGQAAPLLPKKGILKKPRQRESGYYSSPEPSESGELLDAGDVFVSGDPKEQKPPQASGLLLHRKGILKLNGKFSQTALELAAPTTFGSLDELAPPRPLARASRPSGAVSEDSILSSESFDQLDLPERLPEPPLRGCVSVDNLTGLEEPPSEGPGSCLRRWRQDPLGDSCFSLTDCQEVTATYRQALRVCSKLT

C[C@H](c1ccc(F)cc1)N(Cc1cccc(C(=O)O)c1)C(=O)c1cnc2ccccc2c1 [PF-05105679]
inactive: inhibition [1] -0.5% | inhibition [2] 7.42% | residual activity [3] 100% | inhibition [4] -1.68% | residual activity [5] 82% | residual activity [6] 95% | residual activity [7] 100% | residual activity [8] 100% | residual activity [9] 82% | inhibition [10] 22.9% | residual activity [11] 89% | residual activity [12] 100% | residual activity [13] 76% | inhibition [14] 32% | residual activity [15] 89% | inhibition [16] -8.16% | residual activity [17] 64% | residual activity [18] 100% | inhibition [19] 26% | residual activity [20] 96% | residual activity [21] 100% | residual activity [22] 100% | residual activity [23] 100% | residual activity [24] 100% | residual activity [25] 100% | residual activity [26] 100% | residual activity [27] 99% | residual activity [28] 100% | residual activity [29] 100% | residual activity [30] 76% | inhibition [31] -1.72% | inhibition [32] 22% | residual activity [33] 65% | residual activity [34] 100% | residual activity [35] 100% | residual activity [36] 91% | residual activity [37] 100% | residual activity [38] 100% | residual activity [39] 100% | residual activity [40] 100% | residual activity [41] 100% | residual activity [42] 100% | residual activity [43] 100% | residual activity [44] 92% | residual activity [45] 100% | residual activity [46] 90%
